Laboratory results reported in patent publication US10028952B2, “Methods of treating diabetes or obesity using bile acids, bile salts, and mimics thereof” (SATIOGEN PHARMACEUTICALS, INC., priority 2008, dated 2018).
Read-outs that look alike come from different tables or passages of the source.

Tests used:
[1] = target: T1, TGR5 (Homo sapiens, UniProt Q8TDU6); settings: TGR5-transfected CHO cells; more potent than the named bile acid; cited from earlier work
T1 construct: expressed in transfected cells; host or cells: CHO cells
T1 sequence (Q8TDU6 1-330): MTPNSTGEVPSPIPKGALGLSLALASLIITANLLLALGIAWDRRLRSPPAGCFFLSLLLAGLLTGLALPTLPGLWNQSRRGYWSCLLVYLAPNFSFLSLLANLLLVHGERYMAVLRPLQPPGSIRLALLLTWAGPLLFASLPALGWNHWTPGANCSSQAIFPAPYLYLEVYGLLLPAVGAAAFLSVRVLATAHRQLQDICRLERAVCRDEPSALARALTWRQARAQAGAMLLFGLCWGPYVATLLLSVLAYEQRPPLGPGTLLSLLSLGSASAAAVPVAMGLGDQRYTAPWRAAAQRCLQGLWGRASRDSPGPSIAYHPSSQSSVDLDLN

[2] = system: overnight-fasted Sprague Dawley rats; settings: 500 mM sodium taurocholate, 3 mL rectal gel, 1% methyl cellulose, over 6 hours
Method: Using a stainless steel dissolving vessel fitted with a propeller stirrer 1 gram of methyl cellulose is dissolved in 100 mL of purified water and stirred for 15 minutes. 5 syringes connected to gavage tubes are then each filled with 3 mL of the composition.
The sodium taurocholate rectal gel described above was rectally administered to 6 conscious overnight-fasted subjects (e.g., Sprague Dawley rats) and the control rectal gel without the sodium taurocholate was rectally administered to 5 conscious overnight-fasted subjects (e.g., Sprague Dawley rats). Each rat was then exposed to pre-weighed food and the cumulative consumption of the food was determined over a 6 hour period by weighing the food after 30 minutes, 60 minutes, 120 minutes, 240 minutes and 360 minutes.

[3] = system: overnight-fasted Sprague Dawley rats
Method: Using a stainless steel dissolving vessel fitted with a propeller stirrer 1 gram of methyl cellulose is dissolved in 100 mL of purified water and stirred for 15 minutes. 12 syringes connected to gavage tubes are then each filled with 3 mL of the composition.
A 4×4 Latin Square design is used to monitor the effect of the different concentration of taurocholate on the food uptake of overnight-fasted Sprague Dawley rats. Each concentration is tested in triplicate with four rats used per replicate.
The ED50 for inhibition of food intake is obtained by plotting the normalizing the dose response for the anorectic effect of taurocholate to the control data as a log of taurocholate dose vs the percentage of control cumulative intake (FIG. 7).

[4] = system: obese human diabetics; settings: rectal, 0.66-20.0 mmoles in 20 ml 1% carboxymethyl cellulose gel, after 100 mg sitagliptin
Method: Studies were undertaken after an overnight fast following administration (8-10 hours prior to bile salt) of 100 mg sitagliptin, a DPP-4 inhibitor that protects GLP-1 from inactivation by proteolysis. […] The taurocholic acid was administered into the rectum by syringe in a total volume of 20 ml of 1% carboxymethyl cellulose gel. Each dose was administered on a different day with at least three days between doses.

[5] = 50, 150, 500 mM rectal gels, 3 mL

Compound	rank of potency (TGR5 agonist potency) [1]	cumulative food intake compared to rats instilled with gel alone [2]	cumulative food intake, relation to quantity administered [3, 5]	time for which differences in food uptake are maintained [3, 5]	ED50 for inhibition of food intake ([3]; 24 hour intake, rectal gel) [mmol/rat]	ED50 for inhibition of food intake ([3]; at 1 hour, 3 mL doses, rectal gel) [mM]	ED50 for inhibition of food intake ([3]; at 1 hour, rectal gel) [mmol/rat]	dose dependency for inhibition of intake between 8 and 24 hours ([3]; rectal gel)	circulating GLP-1 levels [4]	circulating PYY levels [4]
C[C@H](CCC(=O)O)[C@H]1CC[C@H]2[C@@H]3[C@H](O)C[C@@H]4C[C@H](O)CC[C@]4(C)[C@H]3C[C@H](O)[C@]12C [CA, cholic acid]	> hyodeoxycholic acid (HDCA	–	–	–	–	–	–	–	–	–
C[C@H](CCC(=O)NCCS(=O)(=O)O)[C@H]1CC[C@H]2[C@@H]3[C@H](O)C[C@@H]4C[C@H](O)CC[C@]4(C)[C@H]3C[C@H](O)[C@]12C [taurocholate, taurocholic acid]	–	reduced	dose dependently related	at least 24 hours	7.2	528	1.6	not different	increase	increase
